# Test results published in patent publication US20180098969A1, “HODGKIN LYMPHOMA THERAPY” (Purdue Pharmaceutical Products L.P., priority 2016, published 2018).
# Experiments:
# L428 cells = test: Orbital tumour mass at injection site in xenografted mice; assay type: in vivo, NSG mice; conditions: after injection
# Description: (§1) Two independent experiments were performed to investigate the dose-effect of EDO-S101 in NSG mice eight weeks after xenografting with L428 cells as in Example 8. The aim of the protocol shown in FIG. 8B was to evaluate the effect of sequential treatment with a moderate dose of 60 mg/kg given at an interval of three weeks.
# Some mice developed an orbital tumour mass at the site of the injection. […] In one mouse only that was treated with two doses of 60 mg/kg of EDO-S101, a regression of the orbital tumour was initially observed followed by re-establishment of the orbital mass 3 weeks later. However, this was the only instance observed of re-establishment of the orbital mass after treatment with EDO-S101 at either concentration.
# L540 cell = test: Apoptosis, annexin V-FITC and Hoechst double staining; assay type: cell-based, human; conditions: 5 μM, 24 h and 48 h
# Description: (§2) This assay was performed on 7 cell lines (HDLM2 was excluded due to the low number of available cells) at 24 h and 48 h following EDO-S101 treatment (5 μM, DMSO). Control cells were cultured in the same final concentration of DMSO. Only viable cells (using Hoechst staining) were focused on, and all necrotic cells were excluded. Apoptosis was determined using annexin V-FITC and Hoechst (33342) double staining according to the manufacturer's instructions (BD Biosciences). Cell-cycle fractions were determined by Hoechst nuclear staining. Briefly, cells were harvested, washed in PBS, incubated with annexin V-FITC and Hoechst solution for 30 minutes at room temperature. Data were collected using a FACSCalibur flow cytometer (BD Biosciences) and analyzed with FlowJo Version 7.5.5 obtainable from FlowJo, LLC. Results represent the mean value of 3 independent experiments.
# [1] = system: Hodgkin lymphoma cell lines; test: as above; assay type: cell-based, human; conditions: 5 μM, 24 h and 48 h, all cells
# Description: as §2
# [2] = system: Hodgkin lymphoma cell lines L1236-R100, L1236/DMSO and L1236; test: Viable cell count and IC50, all three lines; assay type: cell-based, human
# Description: (b) The bendamustine-resistant Hodgkin lymphoma cell line L1236-R100, non-resistant L1236 Hodgkin lymphoma cell line cultured in DMSO L1236/DMSO and L1236 was cultured in the presence of EDO-S101 dissolved in DMSO at concentrations of 0.78 μM, 1.56 μM, 3.12 μM, 6.25 μM and 12.5 μM. Control cells were cultured in the same final concentration of DMSO. The number of viable cells was assessed at 24, 48 and 72 hours through a Countess™ automated cell counter (Invitrogen), each experiment being repeated three times and the results given being the mean of the three results ±SD.
# KMH2 cell line = test: Mitotic index and chromosomal aberrations; assay type: cell-based, human
# Description: The mitotic index and chromosomal aberrations for each of the cell lines were evaluated after treatment with either 20 μmol or 10 μmol EDO-S101 in DMSO. Each cell line was cultured at 37° C. in the presence of RPMI 1640 supplemented with 10% FCS and antibiotics. Colcemid (0.1 ug/ml) was added 2 h before harvesting and slides with chromosomes in metaphase were prepared following the standard methanol/acetic acid (3/1, v/v) procedure. The slides were stored at −20° C. until use.
# FISH was performed using a combination of standard procedures from the recommended protocols for chromosome analysis, following telomere and centromere staining, using PNA probes. In all, 100 metaphases were scored per in vitro dose exposure.
# The mitotic index was determined by measurement of the sum of all cells in prophase, metaphase, anaphase and telophase divided by the total number of cells.
# CD14 cells = test: CD14-positive cells by flow cytometry in xenografted mice; assay type: in vivo, NSG mice
# Description: Cells were gated to exclude apoptotic or necrotic cells and sorted into CD30−/CD15− and CD30+ and CD15+/CD30+ fractions by gating on the lowest and highest 5% PE-expressing cells, respectively. Following sorting, the CD30−/CD15− cell fractions were analyzed using a FACScan flow cytometer (Becton Dickinson) and found to be more than 98% pure. For phenotypic analyses of cell lines or sorted cells, cells were prepared as described, and then stained with mouse anti-human CD30-phycoerthrin (PE), CD15-fluorescein isothyocyanate (FITC), CD14-APC-cyanine 7 (Cy7) and CD45-APC (all antibodies from BD PharMingen, San Diego, Calif.). […] Cells were subsequently analysed using a FACS LSRII (Becton Dickinson, Franklin Lakes, N.J.). […]
# Novel biomarkers CD68 and CD14 which are expressed by tumour associated macrophages and myeloid derived suppressor cells respectively in the microenvironment have recently been reported to affect the prognosis of Hodgkin lymphoma (Haematologica, 2011 Feb; 96(2): 186-189). The presence of the CD14-positive cells following administration of a single dose of EDO-S101 (60 mg/kg or 80 mg/kg) and after two administrations of EDO-S101 at 60 mg/kg was evaluated using flow cytometry with anti CD14 antibodies.
# [3] = Weight of xenografted mice; assay type: in vivo, NSG mice
# Description: as §1
# This weight loss was also observed in mice treated with the vehicle. In contrast, the weight of the control mice receiving only freshly prepared phosphate buffered saline (PBS) buffered to 7.3-7.4 increased up to 11 weeks and then started to decrease.
# The toxicity of the dose of 80 mg/kg compared to 60 mg/kg was investigated, as compared to the control groups vehicle and PBS.
# R100 cell line = test: ATM/ATR transcripts; assay type: cell-based, human; conditions: EDO-S101 alone
# Description: 1.56 μM of EDO-S101 was administered to two Hodgkin lymphoma cell lines, the bendamustine naïve cell line L1236 and the bendamustine resistant cell line R100. In a second experiment, Brentuximab Vedotin was administered at a concentration of 3.12 μg/ml to the L1236 cell line and at a concentration of 0.39 μg/ml to the R100 cell line. Finally, in a third experiment EDO-S101 and Brentuximab Vedotin were administered in combination to each of the two cell lines at the same concentrations that they were administered in the monotherapy experiments.
smiles,measurement,setting,value
Cn1c(CCCCCCC(=O)NO)nc2cc(N(CCCl)CCCl)ccc21 [EDO-S101],orbital tumour mass,L428 cells,signification regression
same,sensitivity for apoptosis,L540 cell,higher sensitivity
same,sensitivity for apoptosis,[1],high sensitivity
same,anti-proliferative activity compared with bendamustine,[2],approximately two orders of magnitude greater than for bendamustine
same,mitotic index,KMH2 cell line,very low mitotic index
same,chromosomal aberrations in metaphase,KMH2 cell line; telomere and centromere staining,numerous chromosomal aberrations
same,frequency of CD14 cells,CD14 cells; 2×60 mg/kg versus single 80 mg/kg,higher frequency following treatment with 2×60 mg/kg than treatment with a single dose of 80 mg/kg
same,frequency of CD14 cells,CD14 cells; treated versus untreated mice,significantly higher frequency of CD14 cells in untreated mice compared to treated mice
same,difference between weight losses,[3]; 60 mg/kg versus 80 mg/kg,no significant difference
same,weight of the mice or the different organs,"[3]; mouse, in vivo",No significant difference
same,weight of the mice,[3]; two doses of 60 mg/kg three weeks apart,weight loss following each administration which was regained after several weeks
same,effect on ATM/ATR unbalance,R100 cell line,upregulating ATR and downregulating ATM transcripts
